How the values were obtained:
HIVIIIB [1] = assay: HIV-1 replication in MT2 cell line without human serum (RT activity in supernatant); assay type: cell-based; conditions: Human immunodeficiency virus 1, 120 h, MT2 cells, day 5 after infection, average if tested more than once, read-out: MT2 (HIVIIIB) IC50 range
Procedure: (§1) HIV-1 Replication in MT2 cell line with and without 30% human serum: The cells are infected at a Multiciplicity of Infection (MOI) of 0.5 for 3 h and then washed twice with complete media to remove residual virus. Cells are then resuspended at 0.5×10^6/ml in complete medium (RPMI, 10% FBS, 1% sodium pyruvate), and seeded into 96-well plates (6.25×10^4/well). The cells are cultured in the presence or absence of various concentrations of test compounds in serial dilutions for 3 days at 37° C. The test compounds are serially diluted in complete medium supplemented or not with 30% human serum. After 3 days, 100 μL of cultured medium with cells are replaced with 120 μL of freshly diluted test compounds in complete medium containing or not 30% Human serum. The level of HIV-1 replication is determined at days 5 after infection by the presence of viral RT activity in harvested supernatant fluid. The IC50 values for the virus replication are determined by using GRAPHPAD PRISM software.
(§2) The IC50 of the compounds tested in accordance with the HIV replication activity assay MT2 (HIVIIIB) with or without human serum are represented in Table 6.

HIVIIIB [2] = assay: HIV-1 replication in MT2 cell line with 30% human serum (RT activity in supernatant); assay type: cell-based; conditions: Human immunodeficiency virus 1, 120 h, MT2 cells, day 5 after infection, average if tested more than once, read-out: MT2 (HIVIIIB) with human serum IC50 range
Procedure: as §1, §2

| SMILES | IC50 (HIVIIIB [1]) | IC50 (HIVIIIB [2]) |
| --- | --- | --- |
| C=C(C)[C@@H]1CC[C@]2(NC(=O)N[C@@H](C(=O)O)C(C)C)CC[C@]3(C)[C@H](CC[C@@H]4[C@@]5(C)CC[C@H](OC(=O)CC(C)(C)C(=O)O)C(C)(C)[C@@H]5CC[C@]43C)[C@@H]12 [Cpd 11-4, 3β-O-(3′,3′-Dimethylsuccinyl)-28-norlup-20(29)-ene-17β-yl-N-carbamoyl-L-valine] | < 199 nM | – |
| C=C(C)[C@@H]1CC[C@]2(NC(=O)OCc3ccccc3)CC[C@]3(C)[C@H](CC[C@@H]4[C@@]5(C)CC[C@H](OC(=O)CC(C)(C)C(=O)O)C(C)(C)[C@@H]5CC[C@]43C)[C@@H]12 [Cpd 14-2, 3β-O-(3′,3′-Dimethylsuccinyl)-17β-benzyloxycarbonylamino-28-norlup-20(29)-ene] | < 199 nM | – |
| C=C(C)[C@@H]1CC[C@]2(NC(=O)c3ccccc3)CC[C@]3(C)[C@H](CC[C@@H]4[C@@]5(C)CC[C@H](OC(=O)CC(C)(C)C(=O)O)C(C)(C)[C@@H]5CC[C@]43C)[C@@H]12 [Cpd 13-7, 17β-Benzoylamino-3β-O-(3′,3′-dimethylsuccinyl)-28-norlup-20(29)-ene] | < 199 nM | – |
| C=C(C)[C@@H]1CC[C@]2(NC(=O)N3CCN(C)CC3)CC[C@]3(C)[C@H](CC[C@@H]4[C@@]5(C)CC[C@H](OC(=O)CC(C)(C)C(=O)O)C(C)(C)[C@@H]5CC[C@]43C)[C@@H]12 [Cpd 11-9, 3β-O-(3′,3′-Dimethylsuccinyl)-17β-[(4-methyl-piperazine-1-carbonyl)-amino]-28-norlup-20(29)-ene] | < 199 nM | < 199 nM |
| C=C(C)[C@@H]1CC[C@]2(NC(=O)Cc3ccccc3)CC[C@]3(C)[C@H](CC[C@@H]4[C@@]5(C)CC[C@H](OC(=O)CC(C)(C)C(=O)O)C(C)(C)[C@@H]5CC[C@]43C)[C@@H]12 [Cpd 13-6, 3β-O-(3′,3′-Dimethylsuccinyl)-17β-phenylacetylamino-28-norlup-20(29)-ene] | < 199 nM | < 199 nM |
| C=C(C)[C@@H]1CC[C@]2(NC(=O)C3CC3)CC[C@]3(C)[C@H](CC[C@@H]4[C@@]5(C)CC[C@H](OC(=O)CC(C)(C)C(=O)O)C(C)(C)[C@@H]5CC[C@]43C)[C@@H]12 [Cpd 13-9, 17β-(Cyclopropanecarbonyl-amino)-3β-O-(3′,3′-dimethylsuccinyl)-28-norlup-20(29)-ene] | < 199 nM | < 199 nM |
| C=C(C)[C@@H]1CC[C@]2(NC(=O)C(=O)N(C)C)CC[C@]3(C)[C@H](CC[C@@H]4[C@@]5(C)CC[C@H](OC(=O)CC(C)(C)C(=O)O)C(C)(C)[C@@H]5CC[C@]43C)[C@@H]12 [Cpd 13-3, 17β-Dimethylaminooxalyl-amino-3β-O-(3′,3′-dimethylsuccinyl)-28-norlup-20(29)-ene] | < 199 nM | < 199 nM |
| C=C(C)[C@@H]1CC[C@]2(NC(=O)C(=O)OC)CC[C@]3(C)[C@H](CC[C@@H]4[C@@]5(C)CC[C@H](OC(=O)CC(C)(C)C(=O)O)C(C)(C)[C@@H]5CC[C@]43C)[C@@H]12 [Cpd 13-2, 3β-O-(3′,3′-Dimethylsuccinyl)-17β-methoxyoxalyl-amino-28-norlup-20(29)-ene] | < 199 nM | – |
| C=C(C)[C@@H]1CC[C@]2(NC(=O)NC)CC[C@]3(C)[C@H](CC[C@@H]4[C@@]5(C)CC[C@H](OC(=O)CC(C)(C)C(=O)O)C(C)(C)[C@@H]5CC[C@]43C)[C@@H]12 [Cpd 11-7, 3β-O-(3′,3′-Dimethylsuccinyl)-17β-[N′-(methyl)ureido]-28-norlup-20(29)-ene] | < 199 nM | < 199 nM |
| C=C(C)[C@@H]1CC[C@]2(NC(=O)N[C@@H](C(=O)O)C(C)C)CC[C@]3(C)[C@H](CC[C@@H]4[C@@]5(C)CC[C@H](OC(=O)CC(C)(C)CC(=O)O)C(C)(C)[C@@H]5CC[C@]43C)[C@@H]12 [Cpd 11-5, 3β-O-(3′,3′-Dimethylglutaryl)-28-norlup-20(29)-ene-17β-yl-N-carbamoyl-L-valine] | < 199 nM | – |
| C=C(C)[C@@H]1CC[C@]2(NC(=O)CC(C)(C)C(=O)O)CC[C@]3(C)[C@H](CC[C@@H]4[C@@]5(C)CC[C@H](OC(=O)CC(C)(C)C(=O)O)C(C)(C)[C@@H]5CC[C@]43C)[C@@H]12 [Cpd 13-4, 3β-O,17β-N-bis(3′,3′-dimethylsuccinyl)-28-norlup-20(29)-ene] | < 199 nM | – |
| C=C(C)[C@@H]1CC[C@]2(NC(=O)OC(C)(C)C)CC[C@]3(C)[C@H](CC[C@@H]4[C@@]5(C)CC[C@H](OC(=O)CC(C)(C)C(=O)O)C(C)(C)[C@@H]5CC[C@]43C)[C@@H]12 [Cpd 8-1, 3β-O-(3′,3′-Dimethylsuccinyl)-17β-tert-butyloxycarbonylamino-28-norlup-20(29)-ene] | < 199 nM | – |
| C=C(C)[C@@H]1CC[C@]2(NC(=O)NCC3CCOCC3)CC[C@]3(C)[C@H](CC[C@@H]4[C@@]5(C)CC[C@H](OC(=O)CC(C)(C)C(=O)O)C(C)(C)[C@@H]5CC[C@]43C)[C@@H]12 [Cpd 11-21, 3β-O-(3′,3′-Dimethylsuccinyl)-17β-(N′-tetrahydropyran-4-ylmethyl-ureido)-28-norlup-20(29)-ene] | – | < 199 nM |
| C=C(C)[C@@H]1CC[C@]2(NC(=O)NC3CCC(F)(F)CC3)CC[C@]3(C)[C@H](CC[C@@H]4[C@@]5(C)CC[C@H](OC(=O)CC(C)(C)C(=O)O)C(C)(C)[C@@H]5CC[C@]43C)[C@@H]12 [Cpd 11-25, 3β-O-(3′,3′-Dimethylsuccinyl)-17β-(N′-4,4-difluorocyclohexyl-ureido)-28-norlup-20(29)-ene] | – | < 199 nM |
| C=C(C)[C@@H]1CC[C@]2(NC(=O)Nc3nnc(C)o3)CC[C@]3(C)[C@H](CC[C@@H]4[C@@]5(C)CC[C@H](OC(=O)CC(C)(C)C(=O)O)C(C)(C)[C@@H]5CC[C@]43C)[C@@H]12 [Cpd 11-15, 3β-O-(3′,3′-Dimethylsuccinyl)-17β-[3-(5-methyl-[1,3,4]oxadiazol-2-yl)-ureido]-28-norlup-20(29)-ene] | – | < 199 nM |
| C=C(C)[C@@H]1CC[C@]2(N)CC[C@]3(C)[C@H](CC[C@@H]4[C@@]5(C)CC[C@H](OC(=O)[C@H]6CC[C@@](C)(C(=O)O)C6(C)C)C(C)(C)[C@@H]5CC[C@]43C)[C@@H]12 [Cpd 9-2, 3β-O-[(1′S,3′R)-2′,2′,3′-Trimethyl-cyclopentane-3′-carboxylic acid-1′-carboxyl]-17β-amino-28-norlup-20(29)-ene] | – | < 199 nM |
| C=C(C)[C@@H]1CC[C@]2(NC(=O)NCC(C)C)CC[C@]3(C)[C@H](CC[C@@H]4[C@@]5(C)CC[C@H](OC(=O)CC(C)(C)C(=O)O)C(C)(C)[C@@H]5CC[C@]43C)[C@@H]12 [Cpd 11-24, 3β-O-(3′,3′-Dimethylsuccinyl)-17β-(N′-isobutylureido)-28-norlup-20(29)-ene] | – | < 199 nM |
| C=C(C)[C@@H]1CC[C@]2(NC(=O)CC(C)(C)CC(=O)O)CC[C@]3(C)[C@H](CC[C@@H]4[C@@]5(C)CC[C@H](OC(=O)CC(C)(C)CC(=O)O)C(C)(C)[C@@H]5CC[C@]43C)[C@@H]12 [Cpd 13-5, 3β-O,17β-N-bis(3′,3′-dimethylglutaryl)-28-norlup-20(29)-ene] | < 199 nM | – |

— patent US20110077251A1, “NOVEL 17 BETA LUPANE DERIVATIVES” (priority 2009, published 2011)
